# Experimental data published in patent publication US20170058314A1, “NOVEL METHODOLOGY FOR IDENTIFYING ANTI-PERSISTER ACTIVITY AND ANTIMICROBIAL SUSCEPTIBILITY FOR BORRELIA BURGDORFERI AND OTHER BACTERIA” (priority 2014, published 2017).
# Where two headings read alike, the source gives them in different places. Marks after values point to notes of the source that are not given here. Starred links: 1 amine or outer side, 2 acyl side, 3 side chain; linkers in the order of their positions; H or OH if unused. Positions of bridges follow the written chain, without caps; N, C: chain ends. Non-standard residues stand in square brackets, D forms with d. Residues, ends and D or L forms follow the SMILES beside them. Chains are numbered I, II in the order given. Actinocin(9to1) = Cc1c2oc3c(C)ccc(C(=O)[*:1])c3nc-2c(C(=O)[*:2])c(N)c1=O; NMeV = CN[C@H](C(=O)O)C(C)C; Sar = CNCC(=O)O
# Columns and labels:
# [1] = tested on: B. burgdorferi (growing, strain B31); assay: MIC determination, standard microdilution method; type: cell-based, Borrelia burgdorferi; conditions: for sensitivity of log phase / multiplying B. burgdorferi (words, FIG. 12): MIC test
# [2] = tested on: stationary phase B. burgdorferi persisters (strain B31); assay: NCI compound library screen, SYBR Green I/PI assay (plate reader); conditions: for viability at 50 µM / viability at 20 µM: Borreliella burgdorferi, 168 h
# [3] = tested on: stationary phase B. burgdorferi persisters (strain B31); assay: NCI compound library rescreen, epifluorescence microscope counting; conditions: for viability at 50 µM / viability at 20 µM: Borreliella burgdorferi, 168 h; for viability at 20 µM: read-out: Residual viable cells (%) 20 μM (epifluorescence microscope counting)
# [4] = tested on: log phase and stationary phase B. burgdorferi culture; assay: Antibiotic exposure assay, SYBR Green I/PI (drugs alone and combinations)
# Protocol: To qualitatively determine the effect of antibiotics, 10 μL of each compound from the pre-diluted plate or pre-diluted stock was added to stationary phase B. burgdorferi culture in the 96-well plate. The final volume per well was adjusted to 100 μL at a concentration of 10 μg/mL for each antibiotic. Plates were sealed and placed in a 33° C. incubator for 7 days. The SYBR Green I/PI viability assay was used to assess the live and dead cells after antibiotic exposure as described (Feng, Wang, Shi, et al., 2014). Briefly, 10 μL of SYBR Green I (10,000×stock, Invitrogen) was mixed with 30 μL propidium iodide (PI, 20 mM) into 1.0 mL of sterile dH2O. Then, 10 μL of staining mixture was added to each well and mixed thoroughly. The plates were incubated at room temperature in the dark for 15 minutes followed by plate reading at excitation wavelength at 485 nm and the fluorescence intensity at 535 nm (green emission) and 635 nm (red emission) in microplate reader (HTS 7000 plus Bio Assay Reader, PerkinElmer Inc., USA). With least-square fitting analysis, the regression equation and regression curve of the relationship between percentage of live bacteria and green/red fluorescence ratios was obtained. The regression equation was used to calculate the percentage of live cells in each well of the 96-well plate.
# To qualitatively determine the effect of antibiotics, 10 μL of each compound (final concentration 50 μM) from the pre-diluted plate or pre-diluted stock was added to round body form or stationary phase B. burgdorferi culture in the 96-well plate. The final volume per well was adjusted to 100 μL. Plates were sealed and placed in a 33° C. incubator for 7 days. The SYBR Green I/PI viability assay was used to assess the live and dead cells after antibiotic exposure as described (Feng, Wang, Shi, et al., 2014). Briefly, 10 μL of SYBR Green I (10,000×stock, Invitrogen) was mixed with 30 μL propidium iodide (PI, 20 mM, Sigma-Aldrich) into 1.0 mL of sterile dH2O. Then, 10 μL staining mixture was added to each well and mixed thoroughly. The plates were incubated at room temperature in the dark for 15 minutes followed by plate reading at excitation wavelength at 485 nm and the fluorescence intensity at 535 nm (green emission) and 635 nm (red emission) in microplate reader (HTS 7000 plus Bio Assay Reader, PerkinElmer Inc., USA). With least-square fitting analysis, the regression equation and regression curve of the relationship between percentage of live and dead bacteria as shown in green/red fluorescence ratios was obtained. The regression equation was used to calculate the percentage of live cells in each well of the 96-well plate.
# Round body form and ten day old stationary phase (in brackets) B. burgdorferi culture was treated with 10 μg/mL drugs or their combinations for 7 days. Residual viable B. burgdorferi was calculated according to the regression equation and ratio of Green/Red fluorescence obtained by SYBR Green I/PI assay as described (Feng, Wang, Shi, et al., 2014). Direct microscopy counting was employed to rectify the results of the SYBR Green I/PI assay. […] Abbreviation: Dox, doxcycline; CefP, cefoperazone; DAP, daptomycin; CefM, cefmetazole; Scp, sulfachlorpyridazine; Art, artemisinin; Nft, nitrofurantoin.
# [5] = tested on: round body form of B. burgdorferi; assay: SYBR Green I/PI assay on amoxicillin-induced round body form
# [6] = Borreliella burgdorferi, growing B. burgdorferi, read-out: MIC
# [7] = read-out: Residual viable cells (SYBR Green I/PI assay)
# [8] = read-out: Activity against persisters (residual viable cell percentage)
# [9] = read-out: Residual viable cells (epifluorescence microscope counting)
# [10] = 50 μM, seven day old stationary phase culture, 7 days
# [11] = 10 μg/mL drugs or combinations, 7 days
# [12] = read-out: Residual viable cells (%) 50 μM (epifluorescence microscope counting)
# [13] = read-out: Residual viable cells (%) 20 μM (SYBR Green I/PI assay), 20 μM, seven day old stationary phase, 7 days
# [14] = read-out: Residual viable cells (SYBR Green I/PI assay), 50 μM, seven day old stationary phase culture, 7 days
compound,measurement,setting,value
"Cc1cc(NS(=O)(=O)c2ccc(N)cc2)no1 [Smx, sulfamethoxazole]",MIC,[1]; [6],≤ 0.2 µg/mL
C[C@]1(Cn2ccnn2)[C@H](C(=O)O)N2C(=O)C[C@H]2S1(=O)=O [tazobactam],"sensitivity of log phase / multiplying B. burgdorferi (words, FIG. 12)",[1],less potent
"O=C1c2ccccc2C(=O)c2c(NCCNCCO)ccc(O)c21 [NSC299187, 9,10-Anthracenedione, 1-hydroxy-4-[[2-[(2-hydroxyethyl)amino]ethyl]amino]-]",MIC,[1]; [6],3.26 to 6.52 µg/mL
same,viability at 50 µM,[2]; [7],5%
same,viability at 50 µM,[3]; [8],13%
same,viability at 50 µM,[3]; [9],13%
"Cc1c2oc3c(C)ccc(C(=O)N[C@@H]4C(=O)N[C@H](C(C)C)C(=O)N5CCC[C@H]5C(=O)N(C)CC(=O)N(C)[C@@H](C(C)C)C(=O)O[C@@H]4C)c3nc-2c(C(=O)N[C@@H]2C(=O)N[C@H](C(C)C)C(=O)N3CCC[C@H]3C(=O)N(C)CC(=O)N(C)[C@@H](C(C)C)C(=O)O[C@@H]2C)c(N)c1=O [NSC3053, Dactinomycin] (I: T[dV]P[Sar][NMeV] / II: T[dV]P[Sar][NMeV]; ester I:1-I:C, II:1-II:C; linker I:N-II:N via Actinocin(9to1))",MIC,"[1]; growing B. burgdorferi, listed as Dactinomycin",≦0.78 μg/mL
same,MIC,"[1]; growing B. burgdorferi, listed as dactinomycin",≤ 0.78 µg/mL
same,Residual viable cells (SYBR Green I/PI assay),[2]; [10],37%
same,Residual viable cells (epifluorescence microscope counting),[3]; [10],30%
same,Activity against persisters (residual viable cell percentage),[3]; stationary phase persisters,30%
polymyxin B [Pmb],Live Cell % (residual viable B. burgdorferi),"[4]; ten-day-old stationary phase culture enriched with micro-colonies, 10 μg/mL each drug, 7 days",77% ^c
"O=C1CN(/N=C/c2ccc([N+](=O)[O-])o2)C(=O)N1 [Nft, nitrofurantoin]","Live cell %, ten day old stationary phase culture (in brackets)",[4]; [11],82%
same,"Live cell %, round body form",[5]; [11],33%
Cc1ncc([N+](=O)[O-])n1CCO [Metronidazole],"sensitivity of log phase / multiplying B. burgdorferi (words, FIG. 12)",[1],less potent
same,viability at 50 µM,"[5]; Borreliella burgdorferi, 168 h, read-out: Residual viable cells (SYBR Green I/PI assay)",33%
same,"Ratios of green/red fluorescence, Primary screening","[5]; round body form, 50 μM, 7 days",6.23
same,"Ratios of green/red fluorescence, Rescreening (first column)","[5]; round body form, 50 μM, 7 days",6.30
same,"Ratios of green/red fluorescence, Rescreening (second column)","[5]; round body form, 50 μM, 7 days",6.31
"CC1Oc2cc3c(-c4c(O)cc(O)c5c(O)c6c(cc45)OC(C)C(C)C6=O)c(O)cc(O)c3c(O)c2C(=O)C1C (stereo not drawn) [NSC345647, Chaetochromin]",MIC,[1]; [6],2.74 to 5.47 µg/mL
same,viability at 20 µM,[2]; read-out: Residual viable cells (%) 20 μM (SYBR Green I/PI assay),31%
same,viability at 50 µM,[2]; [7],8%
same,viability at 50 µM,[3]; [8],22%
same,viability at 20 µM,[3],33%
same,viability at 50 µM,[3]; [12],22%
same,viability at 50 µM,[3]; [9],22%
"CC1OC(CC(=O)O)CC2=C1C(=O)c1c(O)cccc1C2=O (stereo not drawn) [NSC267461, Nanaomycin]",MIC,[1]; [6],0.76 to 1.57 µg/mL
same,viability at 20 µM,[2]; [13],39%
same,viability at 50 µM,[2]; [14],34%
same,viability at 50 µM,[3]; [8],26%
same,viability at 20 µM,[3],45%
same,viability at 50 µM,[3]; [12],26%
same,viability at 50 µM,[3]; [9],26%
"CCCCCC1=C/C(=C/c2[nH]c(-c3ccc[nH]3)cc2OC)N=C1C [NSC47147, Prodigiosin]",MIC,[1]; Borreliella burgdorferi,≤ 0.2 µg/mL
same,MIC,[1]; growing B. burgdorferi,≦0.2 μg/mL
same,viability at 20 µM,[2]; [13],0%
same,viability at 50 µM,[2]; [14],0%
same,viability at 50 µM,[3]; [8],24%
same,viability at 20 µM,[3],45%
same,viability at 50 µM,[3]; [12],24%
same,viability at 50 µM,[3]; [9],24%
"CCN(CCO)CCCC(C)Nc1ccnc2cc(Cl)ccc12 (stereo not drawn) [Hcq, hydroxychloroquine]",viability at 10 µg/mL,"[4]; Borreliella burgdorferi, 168 h, read-out: Live Cell % (residual viable B. burgdorferi), ten-day-old stationary phase culture enriched with micro-colonies, 10 μg/mL each drug, 7 days",71%
